In patent US8377894B2, “Drug and food or drink for improving pancreatic functions” (Morinaga Milk Industry Co., Ltd., priority 2005, dated 2013):
Read-outs that look alike come from different tables or passages of the source.

Experiments:
db/db mice [1] = experiment: Pancreatic tissue protecting action: number and maximum area of Langerhans islets in pancreatic sections of db/db mice, Test Example 2; format: in vivo; conditions: for Maximum area of Langerhans islets relative to that observed in the negative test / Number of Langerhans islets relative to negative sample-administered mice: 1 μg, 43rd day of continuous administration; for The numbers of Langerhans islets in sections on 43rd day of administration / Maximum area of Langerhans islets on administration: male db/db mice, 1 μg orally once a day for 42 days; for The numbers of Langerhans islets in sections on 43rd day of administration: hematoxylin-eosin stained pancreatic sections; for Maximum area of Langerhans islets on administration: pancreatic sections
Description: The final DMSO concentration was adjusted to 0.2%. […] On the 43rd day of the continuous administration, the pancreas was extracted, divided into three portions of upstream, midstream and downstream from the duodenum side, and fixed with a formalin solution, and then paraffin blocks were prepared in a conventional manner. Section slides were prepared from the paraffin blocks, and subjected to hematoxylin-eosin staining. The numbers of Langerhans islets existing on the sections of the 3 position of the pancreas, and area of Langerhans islet having the maximum area on each section were measured by using an ocular micrometer on a microscope (“ECLIPSE E600”, NIKON CORP.).

db/db mice [2] = conditions: for Pancreatic function protecting effect: 0.1 μg/animal; for Pancreatic function protecting effect / Serum insulin level relative to that observed in the negative test: 43rd day of continuous administration; for Serum insulin level relative to that observed in the negative test: 1 μg/animal; for Serum insulin levels on 43rd day of administration: male db/db mice, ELISA
Description: This test was performed in order to evaluate the pancreatic endocrine gland cell function (insulin production ability) protecting action of a compound having the cyclolanostane skeleton by using db/db mice known as a model animal of pancreatic hypofunction or pancreatic tissue dysfunction.
In this test, 6-week old male db/db mice (purchased from Clea Japan, Inc.) were used. These mice were divided into groups, each consisting of 7 animals. Each test sample was dissolved in DMSO, and the concentration was adjusted to 0.1 or 1 μg/mL with physiological saline. The final DMSO concentration was adjusted to 0.2%. The pancreatic disorder model mice were orally administered with 1 mL of the test sample once a day everyday for 42 days with a sonde. The serum insulin level was measured on the 43rd day of the continuous administration by using Lbis insulin mouse ELISA kit (Shibayagi Co., Ltd).

[3] = 0.1 μg/animal orally once a day for 42 days
[4] = 1 μg/animal orally once a day for 42 days

SMILES	Maximum area of Langerhans islets relative to that observed in the negative test (db/db mice [1])	Number of Langerhans islets relative to negative sample-administered mice (db/db mice [1])	The numbers of Langerhans islets in sections on 43rd day of administration (db/db mice [1])	Maximum area of Langerhans islets on administration (db/db mice [1])	Pancreatic function protecting effect (db/db mice [2])	Serum insulin level relative to that observed in the negative test (db/db mice [2])	Serum insulin levels on 43rd day of administration (db/db mice [2]; [3])	Serum insulin levels on 43rd day of administration (db/db mice [2]; [4])
CC(C)CCCC(C)C1CCC2(C)C3CCC4C(C)(C)C(O)CCC45CC35CCC12C (stereo not shown) [Test sample 1, 9,19-cyclolanostan-3-ol]	1.8 times	149%	60.0 ± 14.8 piece	78.6 ± 3.3 × 10^3 μm^2	any significant pancreatic function protecting effect was not observed	160%	1.74 ± 0.26 ng/mL	3.19 ± 0.78 ng/mL
C=C(CCC(C)C1CCC2(C)C3CCC4C(C)(C)C(O)CCC45CC35CCC12C)C(C)C (stereo not shown) [Test sample 2, 24-methylene-9,19-cyclolanostan-3-ol]	3.1 times	148%	59.6 ± 11.6 piece	140.0 ± 102.8 × 10^3 μm^2	any significant pancreatic function protecting effect was not observed	170%	1.94 ± 0.56 ng/mL	3.39 ± 1.35 ng/mL
